Data as given in patent publication US12083105B2, “Compositions and methods for treating adult-onset neuronal ceroid lipofuscinosis (Kufs disease)” (CORNELL UNIVERSITY, priority 2020, dated 2024).

How the values were obtained:
[1] = tested on: CSPα; experiment: CSPα oligomerization and palmitoylation in ANCL patient-derived induced neurons (quantitative immunoblotting); format: cell-based, human; details: ANCL iNs; 72 h; compared to vehicle alone; FIG. 7B
Experimental: ANCL patient-derived fibroblasts were treated with 200 μM of L1 or Dfx, or vehicle (0.1% DMSO=Control) for 72 h, before measuring the UV-Vis absorbance spectra of immunoprecipitated CSPα eluted by trypsinization (solid lines). Spectra were re-read after 10 min of 0.1 N HCl treatment (dashed lines). The experiments shown in FIGS. 7B-7I, were conducted using ANCL fibroblasts converted to iNs using BAM+ND1 technique. […] Quantitative immunoblotting was used to measure levels of oligomerized and fully palmitoylated CSPα as well as total SNAP-25. Oligo=oligomers; Palm=palmitoylated. […] The interaction of CSPα with SNAP-25 in ANCL iNs was measured by immunoprecipitating SNAP-25 followed by quantitative immunoblotting of co-immunoprecipitated CSPα (normalized to SNAP-25 IP). Note that mainly CSPα monomers and not oligomers were detected bound to SNAP-25. Control=control sham IP without IgG. […] Turnover of SNAP-25 was determined by cycloheximide chase, while maintaining the iron-chelators or vehicle in the medium. […] In the experiments shown in FIGS. 7E-7G, ANCL iNs treated with L1, Dfx, or vehicle for 56 d and analyzed. […] The levels of lipofuscin were determined by ELISA. In the experiments shown in FIGS. 7H-7I 56 day old untreated ANCL iNs were treated with L1, Dfx, or vehicle, and analyzed. […] Data are from FIG. 7A representative of n=4, FIG. 7B n=4, FIG. 7C n=4, FIG. 7D n=7, FIG. 7F n=4, FIG. 7G n=4, FIG. 7H n=6, FIG. 7I n=3. In FIGS. 7B-7C and FIGS. 7F-7G *P<0.05; **P<0.01; ****P<0.0001 by two-tailed Student's t-test. #P<0.05 by Mann-Whitney-Wilcoxon U test. In FIG. 7D-7C and FIGS. 7H-7I **P<0.01; ***P<0.001; ****P<0.0001 by two-way ANOVA; ##P<0.01; ###P<0.001; ####P<0.0001 by Tukey's multiple comparisons test.
For pharmacological iron-chelation, deferiprone (L1; 200 μM; Biotang), deferoxamine mesylate (Dfx; 200 μM; Calbiochem), or 0.1% DMSO as vehicle control were added to the respective culture media of primary cortical neurons, fibroblasts, or iNs. When these media were changed, the fresh media contained identical concentration of the respective iron-chelator or vehicle.
Fibroblasts from an affected person carrying the L116Δ mutation were obtained, and an age-and-sex matched unaffected fibroblast line was frozen, thawed and cultured in parallel to maintain similar passage numbers. Fibroblasts were maintained in DMEM supplemented with 10% fetal bovine serum supplemented with L-glutamine, penicillin, and streptomycin. […]
For SDS-PAGE, 10-15% Laemmli gels (10.3% T and 3.3% C) were used to separate proteins on Bio-Rad apparati. […] Immunoblots were washed 5× with TBS-T and dried, then scanned on Odyssey CLx (LI-COR) and quantified using Image-Studio software (LI-COR). […]

[2] = tested on: CSPα with SNAP-25; experiment: Interaction of CSPα with SNAP-25 in ANCL iNs (SNAP-25 IP, co-IP of CSPα); format: cell-based, human; details: 72 h, compared to control, FIG. 7C
Experimental: ANCL patient-derived fibroblasts were treated with 200 μM of L1 or Dfx, or vehicle (0.1% DMSO=Control) for 72 h, before measuring the UV-Vis absorbance spectra of immunoprecipitated CSPα eluted by trypsinization (solid lines). Spectra were re-read after 10 min of 0.1 N HCl treatment (dashed lines). The experiments shown in FIGS. 7B-7I, were conducted using ANCL fibroblasts converted to iNs using BAM+ND1 technique. […] Quantitative immunoblotting was used to measure levels of oligomerized and fully palmitoylated CSPα as well as total SNAP-25. Oligo=oligomers; Palm=palmitoylated. […] The interaction of CSPα with SNAP-25 in ANCL iNs was measured by immunoprecipitating SNAP-25 followed by quantitative immunoblotting of co-immunoprecipitated CSPα (normalized to SNAP-25 IP). Note that mainly CSPα monomers and not oligomers were detected bound to SNAP-25. Control=control sham IP without IgG. […] Turnover of SNAP-25 was determined by cycloheximide chase, while maintaining the iron-chelators or vehicle in the medium. […] In the experiments shown in FIGS. 7E-7G, ANCL iNs treated with L1, Dfx, or vehicle for 56 d and analyzed. […] The levels of lipofuscin were determined by ELISA. In the experiments shown in FIGS. 7H-7I 56 day old untreated ANCL iNs were treated with L1, Dfx, or vehicle, and analyzed. […]

Compound | oligomerization of CSPα [1] | palmitoylation of CSPα [1] | interaction of CSPα with SNAP-25 [2]
CC(=O)N(O)CCCCCNC(=O)CCC(=O)N(O)CCCCCNC(=O)CCC(=O)N(O)CCCCCN [Dfx, N′-[5-(Acetyl-hydroxy-amino)pentyl]-N-[5-[3-(5-aminopentyl-hydroxy-carbamoyl)propanoylamino]pentyl]-N-hydroxy-butane diamide] | reduced the oligomerization | improved palmitoylation | improved
Cc1c(O)c(=O)ccn1C [L1, 3-hydroxy-1,2-dimethyl-4(1H)-pyridone] | reduced the oligomerization | improved palmitoylation | improved
